# System: HIV-IIIb
# Experiment: Antiviral assay in MT4 cells
# Format: cell-based
# Details: Human immunodeficiency virus 1, IIIB, MT4, 120 h, read-out: EC50 nM in MT-4
# Procedure: For the antiviral assay utilizing MT4 cells, 0.4 μL of […] test concentration of 3-fold serially diluted compound in DMSO was added to 40 μL of cell growth medium (RPMI 1640, 10% FBS, 1% penicilline/Streptomycine, 1% L-Glutamine, 1% HEPES) in each well of 384-well assay plates (10 concentrations) in quidruplicate.
# 1 mL aliquots of 2×10^6 MT4 cells are pre-infected for 1 and 3 hours respectively at 37° C. with 25 μL (MT4) or of either cell growth medium (mock-infected) or a fresh 1:250 dilution of an HIV-IIIb concentrated ABI stock (0.004 m.o.i. for MT4 cells). Infected and uninfected cells are diluted in cell growth medium and 35 μL of 2000 (for MT4) cells is added to each well of the assay plates.
# Assay plates were then incubated in a 37° C. incubator. […] Cell lysis was carried out by incubating at room temperature for 2-3 minutes, and then chemiluminescence was read using the Envision reader (PerkinElmer).
smiles,measurement,value
"CC1CC2CC1OC1Cn3cc(C(=O)NCc4ccc(F)cc4F)c(=O)c(O)c3C(=O)N21 (single isomer, unassigned) [Compound 40]",EC50,2.4 nM

# — US11548901B2, “Substituted 1,4-methanopyrido[1′,2′:4,5]pyrazino[1,2-a]pyrimidines for treating viral infections” (Gilead Sciences, Inc., priority 2012, dated 2023)
